Measurements taken from US8093290B2, “Coolant solutions and compositions comprising the same” (Givaudan SA, priority 2002, dated 2012).

System: oral cavity
Test: observed area of the oral cavity affected by the coolant effect
Settings: in vivo

SMILES: CC1CCC(C(C)C)C(OC(=O)C(C)O)C1 (stereo not shown) [Menthyl lactate, menthyl lactate]
- area of the oral cavity targeted by the coolant effect: front/middle of the mouth
